The record followed here is PMC5360100 (Biochemical pharmacology, 2011).

Holding throughout (assay): […]cAMP formation from [alpha-32P]ATP, Sf9 membranes
What all share (format): biochemical
(cAMP levels reflect the balance of adenylyl cyclase and phosphodiesterase activity.)

Test [1] deals with T1, canine AC5 (Canis lupus, UniProt P30803).
In test [2] the target is T2, bovine AC1 (Bos taurus, UniProt P19754).
Test [3] addresses T3, rat AC2 (Rattus norvegicus, UniProt P26769).
For test [4], the target named is T1, canine AC5. Conditions: 300 µM; 7 mM Mg2+, 40 μM ATP, 10 μM GTPγS, pH 7.4, 30°C, 3% DMSO.
Test [5] deals with T3, rat AC2. To be noted: 300 µM; 7 mM Mg2+, 40 μM ATP, 10 μM GTPγS, pH 7.4, 30°C, 3% DMSO.
Test [6] deals with T2, bovine AC1. To be noted: 300 µM; 7 mM Mg2+, 40 μM ATP, 10 μM GTPγS, pH 7.4, 30°C, 3% DMSO.

T1 sequence (P30803 whole entry): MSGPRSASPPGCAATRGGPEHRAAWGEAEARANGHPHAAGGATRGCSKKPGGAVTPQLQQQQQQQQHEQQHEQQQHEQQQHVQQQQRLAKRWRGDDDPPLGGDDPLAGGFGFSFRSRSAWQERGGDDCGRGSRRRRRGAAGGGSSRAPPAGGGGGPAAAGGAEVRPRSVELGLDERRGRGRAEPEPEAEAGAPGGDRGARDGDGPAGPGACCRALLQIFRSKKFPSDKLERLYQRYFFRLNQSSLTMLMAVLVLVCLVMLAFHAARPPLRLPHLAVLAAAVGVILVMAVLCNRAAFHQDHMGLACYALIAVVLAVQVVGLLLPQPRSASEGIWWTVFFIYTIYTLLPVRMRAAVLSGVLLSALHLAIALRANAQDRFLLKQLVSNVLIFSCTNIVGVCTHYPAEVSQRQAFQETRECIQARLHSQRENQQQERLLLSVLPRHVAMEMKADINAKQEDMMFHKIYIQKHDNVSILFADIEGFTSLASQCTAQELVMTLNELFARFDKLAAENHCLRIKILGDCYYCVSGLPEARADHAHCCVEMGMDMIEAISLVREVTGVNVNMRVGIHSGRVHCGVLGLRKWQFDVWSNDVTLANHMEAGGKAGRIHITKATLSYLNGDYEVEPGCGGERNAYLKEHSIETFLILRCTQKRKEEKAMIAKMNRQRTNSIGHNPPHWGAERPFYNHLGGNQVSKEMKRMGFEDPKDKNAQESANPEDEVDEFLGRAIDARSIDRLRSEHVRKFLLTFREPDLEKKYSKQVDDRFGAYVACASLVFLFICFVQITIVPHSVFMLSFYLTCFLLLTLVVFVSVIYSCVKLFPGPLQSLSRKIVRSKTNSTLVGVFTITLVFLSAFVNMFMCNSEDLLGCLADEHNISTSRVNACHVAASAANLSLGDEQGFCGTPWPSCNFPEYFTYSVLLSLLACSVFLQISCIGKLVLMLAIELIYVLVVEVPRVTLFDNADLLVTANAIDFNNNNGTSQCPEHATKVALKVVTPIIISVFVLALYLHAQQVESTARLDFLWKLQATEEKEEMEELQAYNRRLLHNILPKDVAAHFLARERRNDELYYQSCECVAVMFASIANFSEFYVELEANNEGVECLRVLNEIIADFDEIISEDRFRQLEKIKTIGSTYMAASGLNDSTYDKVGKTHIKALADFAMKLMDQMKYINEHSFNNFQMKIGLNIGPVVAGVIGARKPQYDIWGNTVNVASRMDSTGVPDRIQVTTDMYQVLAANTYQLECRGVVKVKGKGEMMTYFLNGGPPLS
T3 sequence (P26769 whole entry): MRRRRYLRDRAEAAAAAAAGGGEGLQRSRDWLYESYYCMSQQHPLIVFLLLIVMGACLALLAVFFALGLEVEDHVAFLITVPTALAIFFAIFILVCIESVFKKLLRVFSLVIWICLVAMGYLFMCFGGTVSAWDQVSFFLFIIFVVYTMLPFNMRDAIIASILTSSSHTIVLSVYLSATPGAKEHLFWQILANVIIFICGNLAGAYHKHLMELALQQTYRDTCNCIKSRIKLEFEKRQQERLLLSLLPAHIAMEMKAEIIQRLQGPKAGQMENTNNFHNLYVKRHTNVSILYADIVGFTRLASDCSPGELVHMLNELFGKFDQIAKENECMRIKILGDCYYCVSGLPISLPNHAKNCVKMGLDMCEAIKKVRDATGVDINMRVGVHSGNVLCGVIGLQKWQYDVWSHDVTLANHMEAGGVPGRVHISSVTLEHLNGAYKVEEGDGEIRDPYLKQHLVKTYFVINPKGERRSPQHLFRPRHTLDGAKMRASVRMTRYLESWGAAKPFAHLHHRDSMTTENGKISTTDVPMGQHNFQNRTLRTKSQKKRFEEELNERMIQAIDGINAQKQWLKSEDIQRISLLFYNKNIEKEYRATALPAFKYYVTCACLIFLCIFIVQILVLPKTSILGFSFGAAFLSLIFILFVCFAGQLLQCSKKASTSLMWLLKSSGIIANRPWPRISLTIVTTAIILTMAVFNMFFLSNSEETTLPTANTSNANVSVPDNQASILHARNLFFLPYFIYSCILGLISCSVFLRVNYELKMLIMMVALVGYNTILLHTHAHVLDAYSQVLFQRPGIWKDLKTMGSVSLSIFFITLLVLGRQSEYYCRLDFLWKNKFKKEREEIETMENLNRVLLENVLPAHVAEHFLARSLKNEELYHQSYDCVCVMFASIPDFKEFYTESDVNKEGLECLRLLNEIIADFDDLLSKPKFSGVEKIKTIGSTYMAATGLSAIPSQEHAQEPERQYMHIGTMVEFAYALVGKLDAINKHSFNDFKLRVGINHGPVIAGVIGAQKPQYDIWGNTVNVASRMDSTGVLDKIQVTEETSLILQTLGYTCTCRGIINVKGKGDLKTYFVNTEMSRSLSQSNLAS
T2 sequence (P19754 whole entry): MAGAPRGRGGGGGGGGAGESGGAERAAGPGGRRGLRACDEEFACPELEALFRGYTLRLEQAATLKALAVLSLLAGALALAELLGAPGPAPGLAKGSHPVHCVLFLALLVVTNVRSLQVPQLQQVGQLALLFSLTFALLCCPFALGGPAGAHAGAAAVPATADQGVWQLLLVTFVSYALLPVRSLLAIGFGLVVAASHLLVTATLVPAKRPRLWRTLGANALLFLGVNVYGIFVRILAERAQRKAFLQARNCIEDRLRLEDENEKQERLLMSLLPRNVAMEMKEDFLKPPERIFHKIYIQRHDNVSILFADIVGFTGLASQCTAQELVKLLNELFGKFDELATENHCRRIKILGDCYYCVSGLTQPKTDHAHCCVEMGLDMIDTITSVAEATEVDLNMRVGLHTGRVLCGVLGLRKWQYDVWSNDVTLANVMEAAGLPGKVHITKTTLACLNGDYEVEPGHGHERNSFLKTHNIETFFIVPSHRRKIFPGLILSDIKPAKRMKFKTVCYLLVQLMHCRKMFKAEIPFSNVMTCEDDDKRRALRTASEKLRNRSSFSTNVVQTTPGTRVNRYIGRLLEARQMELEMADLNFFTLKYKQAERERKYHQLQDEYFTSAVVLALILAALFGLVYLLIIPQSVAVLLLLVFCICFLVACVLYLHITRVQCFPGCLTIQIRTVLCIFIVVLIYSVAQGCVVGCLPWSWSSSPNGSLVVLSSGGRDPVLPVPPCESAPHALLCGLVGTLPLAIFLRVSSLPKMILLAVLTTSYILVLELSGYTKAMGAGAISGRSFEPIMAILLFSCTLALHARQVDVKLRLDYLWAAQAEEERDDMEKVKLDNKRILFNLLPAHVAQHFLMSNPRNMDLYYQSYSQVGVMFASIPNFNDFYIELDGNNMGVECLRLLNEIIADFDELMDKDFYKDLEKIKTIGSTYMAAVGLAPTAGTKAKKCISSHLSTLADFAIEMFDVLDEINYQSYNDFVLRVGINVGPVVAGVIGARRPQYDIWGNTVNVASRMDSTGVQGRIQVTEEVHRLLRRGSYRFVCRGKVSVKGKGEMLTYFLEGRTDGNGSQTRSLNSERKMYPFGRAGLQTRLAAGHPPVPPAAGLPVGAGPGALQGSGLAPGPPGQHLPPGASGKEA

One may read the EC50 as the concentration needed to bring the measured effect to its halfway point. Low values mean higher potency in that assay, high ones lower potency in that assay. In the case of `C=C[C@@]1(C)CC(=O)[C@H]2[C@](C)(O1)[C@@H](OC(C)=O)[C@@H](O)[C@H]1C(C)(C)CC[C@H](O)[C@@]12C` [9d-FS], the EC50 came to 77.8 ± 46.1 µM at canine AC5 [1], 16.8 ± 3 µM on bovine AC1 [2] and 242 ± 113 µM at rat AC2 [3].

Turning to `C=C[C@@]1(C)CC(=O)[C@]2(O)[C@@]3(C)[C@@H](O)CCC(C)(C)[C@@H]3[C@H](OC(C)=O)[C@H](O)[C@@]2(C)O1` [6A7DA-FS], the results for the EC50 on canine AC5 [1], at bovine AC1 [2] and on rat AC2 [3] were 52.1 ± 16.7 µM, 6.5 ± 2.1 µM and 1.8 µM, respectively.

For the molecule `C=C[C@@]1(C)CC(=O)[C@]2(O)[C@@]3(C)CCCC(C)(C)[C@@H]3[C@H](O)[C@H](OC(C)=O)[C@@]2(C)O1` [1d-FS], on canine AC5 [4], the “AC5 / Efficacy [%]” value was determined as 14.7 ± 4.4%. The “AC2 / Efficacy [%]” value at rat AC2 [5] stood at 1.7 ± 3.4%. On bovine AC1 [6], the “AC1 / Efficacy [%]” value came to 11.1 ± 4.7%.

Turning to `C=C[C@@]1(C)CC(=O)[C@]2(O)[C@@]3(C)[C@@H](O)CCC(C)(C)[C@@H]3[C@H](O)[C@H](OC(C)=O)[C@@]2(C)O1` [FS], the results for the EC50 at canine AC5 [1], on bovine AC1 [2] and at rat AC2 [3] were 4.6 ± 1.5 µM, 5.5 ± 0.8 µM and 47.3 ± 8.1 µM, respectively.
